From PMC6001238, “Iterative Chemical Engineering of Vancomycin Leads to Novel Vancomycin Analogs With a High in Vitro Therapeutic Index” (Frontiers in Microbiology, 2018)
≈ marks a conversion by molar mass, not a printed value.

Experiments:
[1] = system: L1210, CEM and HeLa cell lines; assay: Cytostatic activity, average or summary over L1210, CEM and HeLa; format: cell-based; settings: average of L1210, CEM and HeLa; read-out: Toxicity (IC50) Average
Method in brief: (§1)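 Suspensions (300,000–500,000 cells/mL) combined with equal volumes of diluted compound; 37°C; L1210 2 d / CEM 3 d / HeLa 4 d; counted by Coulter counter; IC50 vs untreated wells.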

MRSA KS89 = assay: MIC, broth microdilution, MRSA KS89; format: cell-based, Staphylococcus aureus; settings: for MIC-fold improvement vs. vancomycin: MRSA KS8, ratio of MIC of vancomycin and MIC of analogue; for MIC: Staphylococcus aureus MRSA KS8, read-out: MIC
Method in brief: (§2)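 Broth microdilution per CLSI; controls = ultrapure water, non-inoculated broth. One set: + vancomycin 10 μM final alongside test analogue/control drug.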

[2] = system: Murine leukemia (L1210) cells; assay: Cytostatic activity, L1210 cell proliferation; format: cell-based; settings: mean ± SD of three experiments; highest concentration tested 250 µM; 2 days; read-out: Toxicity (IC50) L1210
Method in brief: as §1

MRSA KS2 = assay: MIC, broth microdilution, MRSA KS2; format: cell-based, Staphylococcus aureus; settings: for MIC-fold improvement vs. vancomycin: MRSA KS2, ratio of MIC of vancomycin and MIC of analogue; for MIC: Staphylococcus aureus MRSA KS2, read-out: MIC
Method in brief: as §2

S. aureus VRSA = assay: MIC, broth microdilution, vancomycin-resistant S. aureus (VRSA); format: cell-based, Staphylococcus aureus; settings: for MIC: Staphylococcus aureus VRSA, read-out: MIC; for MIC-fold improvement vs. vancomycin: VRSA, ratio of MIC of vancomycin and MIC of analogue
Method in brief: as §2

E. faecalis VSE 1 = assay: MIC, broth microdilution, vancomycin-sensitive E. faecalis (VSE 1); format: cell-based, Enterococcus faecalis; settings: for MIC: Enterococcus faecalis VSE 1 (vancomycin-sensitive), read-out: MIC; for MIC-fold improvement vs. vancomycin: VSE 1, ratio of MIC of vancomycin and MIC of analogue
Method in brief: as §2

MRSA KS1 = assay: MIC, broth microdilution, MRSA KS1; format: cell-based, Staphylococcus aureus; settings: for MIC-fold improvement vs. vancomycin: MRSA KS1, ratio of MIC of vancomycin and MIC of analogue; for MIC: Staphylococcus aureus MRSA KS1, read-out: MIC
Method in brief: as §2

S. aureus VISA/HIP5827 = assay: MIC, broth microdilution, vancomycin-intermediate S. aureus VISA HIP5827; format: cell-based, Staphylococcus aureus; settings: for MIC: Staphylococcus aureus VISA/HIP5827, read-out: MIC; for MIC-fold improvement vs. vancomycin: VISA/HIP5827, ratio of MIC of vancomycin and MIC of analogue
Method in brief: as §2

[3] = system: S. aureus VSSA (ATCC 6538); assay: MIC, broth microdilution, vancomycin-sensitive S. aureus (VSSA/MSSA, ATCC 6538); format: cell-based, Staphylococcus aureus; settings: for MIC: Staphylococcus aureus VSSA, read-out: MIC; for MIC-fold improvement vs. vancomycin: VSSA, ratio of MIC of vancomycin and MIC of analogue
Method in brief: as §2

E. faecalis VRE 6 = assay: MIC, broth microdilution, vancomycin-resistant E. faecalis VRE 6 (VanA); format: cell-based, Enterococcus faecalis; settings: for MIC: Enterococcus faecalis VRE 6 (vancomycin-resistant), read-out: MIC; for MIC-fold improvement vs. vancomycin: VRE 6, ratio of MIC of vancomycin and MIC of analogue
Method in brief: as §2

[4] = system: human cervix carcinoma (HeLa) cells; assay: Cytostatic activity, HeLa cell proliferation; format: cell-based; settings: mean ± SD of three experiments; highest concentration tested 250 µM; 4 days; read-out: Toxicity (IC50) HeLa
Method in brief: as §1

E. faecalis VRE 37 = assay: MIC, broth microdilution, vancomycin-resistant E. faecalis VRE 37 (VanA); format: cell-based, Enterococcus faecalis; settings: for MIC: Enterococcus faecalis VRE 37 (vancomycin-resistant), read-out: MIC; for MIC-fold improvement vs. vancomycin: VRE 37, ratio of MIC of vancomycin and MIC of analogue
Method in brief: as §2

[5] = system: human T-lymphocyte (CEM) cells; assay: Cytostatic activity, CEM cell proliferation; format: cell-based; settings: mean ± SD of three experiments; highest concentration tested 250 µM; 3 days; read-out: Toxicity (IC50) CEM
Method in brief: as §1

MRSA KS6 = assay: MIC, broth microdilution, MRSA KS6; format: cell-based, Staphylococcus aureus; settings: for MIC-fold improvement vs. vancomycin: MRSA KS6, ratio of MIC of vancomycin and MIC of analogue; for MIC: Staphylococcus aureus MRSA KS6, read-out: MIC
Method in brief: as §2

E. faecalis VRE 29 = assay: MIC, broth microdilution, vancomycin-resistant E. faecalis VRE 29 (VanA); format: cell-based, Enterococcus faecalis; settings: for MIC: Enterococcus faecalis VRE 29 (vancomycin-resistant), read-out: MIC; for MIC-fold improvement vs. vancomycin: VRE 29, ratio of MIC of vancomycin and MIC of analogue
Method in brief: as §2

E. faecalis VRE 53 = assay: MIC, broth microdilution, vancomycin-resistant E. faecalis VRE 53 (VanA); format: cell-based, Enterococcus faecalis; settings: for MIC: Enterococcus faecalis VRE 53 (vancomycin-resistant), read-out: MIC; for MIC-fold improvement vs. vancomycin: VRE 53, ratio of MIC of vancomycin and MIC of analogue
Method in brief: as §2

SMILES	IC50 [1] [µM]	MIC-fold improvement vs. vancomycin (MRSA KS89)	MIC (MRSA KS89) [µM]	IC50 [2] [µM]	MIC-fold improvement vs. vancomycin (MRSA KS2)	MIC (MRSA KS2) [µM]	MIC (S. aureus VRSA) [µM]	MIC-fold improvement vs. vancomycin (S. aureus VRSA)	MIC (E. faecalis VSE 1) [µM]	MIC-fold improvement vs. vancomycin (E. faecalis VSE 1)	MIC-fold improvement vs. vancomycin (MRSA KS1)	MIC (MRSA KS1) [µM]	MIC (S. aureus VISA/HIP5827) [µM]	MIC-fold improvement vs. vancomycin (S. aureus VISA/HIP5827)	MIC [3] [µM]	MIC-fold improvement vs. vancomycin [3]	MIC (E. faecalis VRE 6) [µM]	MIC-fold improvement vs. vancomycin (E. faecalis VRE 6)	IC50 [4] [µM]	MIC (E. faecalis VRE 37) [µM]	further results
CN[C@H](CC(C)C)C(=O)N[C@H]1C(=O)N[C@@H](CC(N)=O)C(=O)N[C@H]2C(=O)N[C@H]3C(=O)N[C@H](C(=O)N[C@H](C(=O)NCCNC(=O)/C=C/c4ccc(NS(=O)(=O)c5ccccc5)cc4)c4cc(O)cc(O)c4-c4cc3ccc4O)[C@H](O)c3ccc(c(Cl)c3)Oc3cc2cc(c3O[C@@H]2O[C@H](CO)[C@@H](O)[C@H](O)[C@H]2O[C@H]2C[C@](C)(N)[C@H](O)[C@H](C)O2)Oc2ccc(cc2Cl)[C@H]1O [Vanc-54]	185	2	0.39 (≈ 0.693 µg/mL)	> 250	2	0.39 (≈ 0.693 µg/mL)	0.39 (≈ 0.693 µg/mL)	256	0.78 (≈ 1.39 µg/mL)	2	2	0.39 (≈ 0.693 µg/mL)	0.78 (≈ 1.39 µg/mL)	8	0.39 (≈ 0.693 µg/mL)	2	12.5 (≈ 22.2 µg/mL)	16	54 ± 29	25 (≈ 44.4 µg/mL)	MIC-fold improvement vs. vancomycin (E. faecalis VRE 37): 16; IC50 [5]: ≥ 250 µM; MIC-fold improvement vs. vancomycin (MRSA KS6): 2; MIC (MRSA KS6): 0.39 µM (≈ 0.693 µg/mL); MIC (E. faecalis VRE 29): 25 µM (≈ 44.4 µg/mL); MIC-fold improvement vs. vancomycin (E. faecalis VRE 29): 16; MIC (E. faecalis VRE 53): 25 µM (≈ 44.4 µg/mL); MIC-fold improvement vs. vancomycin (E. faecalis VRE 53): 16
CN[C@H](CC(C)C)C(=O)N[C@H]1C(=O)N[C@@H](CC(N)=O)C(=O)N[C@H]2C(=O)N[C@H]3C(=O)N[C@H](C(=O)N[C@H](C(=O)NCC(=O)Nc4ccc(OC)c(OC)c4)c4cc(O)cc(O)c4-c4cc3ccc4O)[C@H](O)c3ccc(c(Cl)c3)Oc3cc2cc(c3O[C@@H]2O[C@H](CO)[C@@H](O)[C@H](O)[C@H]2O[C@H]2C[C@](C)(N)[C@H](O)[C@H](C)O2)Oc2ccc(cc2Cl)[C@H]1O [Vanc-7]	> 250	1	0.78 (≈ 1.28 µg/mL)	> 250	2	0.39 (≈ 0.64 µg/mL)	12.5 (≈ 20.5 µg/mL)	8	0.78 (≈ 1.28 µg/mL)	2	1	0.78 (≈ 1.28 µg/mL)	0.78 (≈ 1.28 µg/mL)	8	0.78 (≈ 1.28 µg/mL)	1	12.5 (≈ 20.5 µg/mL)	16	> 250	12.5 (≈ 20.5 µg/mL)	MIC-fold improvement vs. vancomycin (E. faecalis VRE 37): 64; IC50 [5]: > 250 µM; MIC-fold improvement vs. vancomycin (MRSA KS6): 1; MIC (MRSA KS6): 0.78 µM (≈ 1.28 µg/mL); MIC (E. faecalis VRE 29): 12.5 µM (≈ 20.5 µg/mL); MIC-fold improvement vs. vancomycin (E. faecalis VRE 29): 32; MIC (E. faecalis VRE 53): 12.5 µM (≈ 20.5 µg/mL); MIC-fold improvement vs. vancomycin (E. faecalis VRE 53): 32
CN[C@H](CC(C)C)C(=O)N[C@H]1C(=O)N[C@@H](CC(N)=O)C(=O)N[C@H]2C(=O)N[C@H]3C(=O)N[C@H](C(=O)N[C@H](C(=O)NCC(=O)Nc4ccc(C)cc4C)c4cc(O)cc(O)c4-c4cc3ccc4O)[C@H](O)c3ccc(c(Cl)c3)Oc3cc2cc(c3O[C@@H]2O[C@H](CO)[C@@H](O)[C@H](O)[C@H]2O[C@H]2C[C@](C)(N)[C@H](O)[C@H](C)O2)Oc2ccc(cc2Cl)[C@H]1O [Vanc-15]	196	1	0.78 (≈ 1.26 µg/mL)	> 250	2	0.39 (≈ 0.628 µg/mL)	12.5 (≈ 20.1 µg/mL)	8	1.56 (≈ 2.51 µg/mL)	1	1	0.78 (≈ 1.26 µg/mL)	1.56 (≈ 2.51 µg/mL)	4	0.78 (≈ 1.26 µg/mL)	1	6.25 (≈ 10.1 µg/mL)	32	87 ± 12	25 (≈ 40.2 µg/mL)	MIC-fold improvement vs. vancomycin (E. faecalis VRE 37): 16; IC50 [5]: > 250 µM; MIC-fold improvement vs. vancomycin (MRSA KS6): 1; MIC (MRSA KS6): 0.78 µM (≈ 1.26 µg/mL); MIC (E. faecalis VRE 29): 12.5 µM (≈ 20.1 µg/mL); MIC-fold improvement vs. vancomycin (E. faecalis VRE 29): 32; MIC (E. faecalis VRE 53): 25 µM (≈ 40.2 µg/mL); MIC-fold improvement vs. vancomycin (E. faecalis VRE 53): 16
CCCCCCCc1ccc(C(=O)NCCCNC(=O)C2NC(=O)C3NC(=O)C(NC(=O)C4NC(=O)C(CC(N)=O)NC(=O)C(NC(=O)C(CC(C)C)NC)C(O)c5ccc(c(Cl)c5)Oc5cc4cc(c5OC4OC(CO)C(O)C(O)C4OC4CC(C)(N)C(O)C(C)O4)Oc4ccc(cc4Cl)C3O)c3ccc(O)c(c3)-c3c(O)cc(O)cc32)cc1 (stereo not shown) [Vanc-31]	37	4	0.20 (≈ 0.342 µg/mL)	8.8 ± 0.6	4	0.20 (≈ 0.342 µg/mL)	0.78 (≈ 1.33 µg/mL)	128	0.39 (≈ 0.666 µg/mL)	4	1	0.78 (≈ 1.33 µg/mL)	0.05 (≈ 0.0854 µg/mL)	128	0.20 (≈ 0.342 µg/mL)	4	0.39 (≈ 0.666 µg/mL)	513	86 ± 14	1.56 (≈ 2.66 µg/mL)	MIC-fold improvement vs. vancomycin (E. faecalis VRE 37): 256; IC50 [5]: 17 ± 5 µM; MIC-fold improvement vs. vancomycin (MRSA KS6): 4; MIC (MRSA KS6): 0.20 µM (≈ 0.342 µg/mL); MIC (E. faecalis VRE 29): 1.56 µM (≈ 2.66 µg/mL); MIC-fold improvement vs. vancomycin (E. faecalis VRE 29): 256; MIC (E. faecalis VRE 53): 3.13 µM (≈ 5.35 µg/mL); MIC-fold improvement vs. vancomycin (E. faecalis VRE 53): 128
